{"source": "paper PMC8799717", "about": "“Pharmacological targeting PIKfyve and tubulin as an effective treatment strategy for double-hit lymphoma” (Cell Death Discovery, 2022)", "experiment_in_all_cases": "biochemical", "design_in_all_cases": "KINOMEscan active-site-directed competition binding panel, 468 kinases, percent of DMSO control at 1 uM", "conditions_in_all_cases": "KINOMEscan binding, percent of DMSO control; read-out: Ctrl%", "key": {"SRC": {"biological_target": "SRC (Homo sapiens, UniProt P12931)", "sequence (P12931 whole entry)": "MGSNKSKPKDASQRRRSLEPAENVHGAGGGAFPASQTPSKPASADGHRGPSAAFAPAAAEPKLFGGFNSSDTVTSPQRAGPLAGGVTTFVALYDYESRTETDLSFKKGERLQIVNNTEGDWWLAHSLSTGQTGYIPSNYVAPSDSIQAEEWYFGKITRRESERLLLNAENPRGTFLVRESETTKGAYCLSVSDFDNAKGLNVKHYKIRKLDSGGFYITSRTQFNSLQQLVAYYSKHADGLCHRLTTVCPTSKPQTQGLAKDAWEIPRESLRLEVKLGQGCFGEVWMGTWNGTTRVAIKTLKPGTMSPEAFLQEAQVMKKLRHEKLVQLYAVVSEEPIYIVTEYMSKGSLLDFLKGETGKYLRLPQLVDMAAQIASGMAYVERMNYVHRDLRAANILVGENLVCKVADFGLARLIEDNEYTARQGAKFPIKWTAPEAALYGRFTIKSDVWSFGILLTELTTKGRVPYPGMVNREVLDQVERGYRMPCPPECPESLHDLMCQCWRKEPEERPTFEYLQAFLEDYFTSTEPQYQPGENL"}, "CDK9": {"biological_target": "CDK9 (Homo sapiens, UniProt P50750)", "sequence (P50750 whole entry)": "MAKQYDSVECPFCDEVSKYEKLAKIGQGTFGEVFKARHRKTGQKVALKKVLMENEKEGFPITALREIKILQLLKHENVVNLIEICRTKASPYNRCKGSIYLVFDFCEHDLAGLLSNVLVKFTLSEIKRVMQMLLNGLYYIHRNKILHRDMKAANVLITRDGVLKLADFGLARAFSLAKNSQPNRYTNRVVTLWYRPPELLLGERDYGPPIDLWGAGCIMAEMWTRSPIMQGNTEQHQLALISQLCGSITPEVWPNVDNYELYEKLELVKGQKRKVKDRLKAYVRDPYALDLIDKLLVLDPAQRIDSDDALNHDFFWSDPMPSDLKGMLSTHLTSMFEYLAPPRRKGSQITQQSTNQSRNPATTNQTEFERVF"}, "CAMK4": {"biological_target": "CAMK4 (Homo sapiens, UniProt Q16566)", "sequence (Q16566 whole entry)": "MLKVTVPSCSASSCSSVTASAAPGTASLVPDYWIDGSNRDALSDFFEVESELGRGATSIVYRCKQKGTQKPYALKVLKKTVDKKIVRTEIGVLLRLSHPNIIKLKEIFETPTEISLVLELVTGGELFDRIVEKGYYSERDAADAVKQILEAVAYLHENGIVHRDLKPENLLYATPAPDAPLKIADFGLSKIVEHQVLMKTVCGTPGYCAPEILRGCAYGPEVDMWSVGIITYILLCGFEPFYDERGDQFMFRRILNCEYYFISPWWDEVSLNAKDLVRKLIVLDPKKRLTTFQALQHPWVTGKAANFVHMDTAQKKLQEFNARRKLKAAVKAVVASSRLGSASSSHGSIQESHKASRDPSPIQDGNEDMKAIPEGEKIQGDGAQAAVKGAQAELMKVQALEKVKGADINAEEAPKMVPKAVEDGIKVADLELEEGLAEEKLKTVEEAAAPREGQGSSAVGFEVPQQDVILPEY"}, "TAOK1": {"biological_target": "TAOK1 (Homo sapiens, UniProt Q7L7X3)"}, "FAK": {"biological_target": "T1, FAK (Homo sapiens, UniProt Q05397)", "T1 construct": "gene PTK2"}, "SRPK2": {"biological_target": "SRPK2 (Homo sapiens, UniProt P78362)", "sequence (P78362 whole entry)": "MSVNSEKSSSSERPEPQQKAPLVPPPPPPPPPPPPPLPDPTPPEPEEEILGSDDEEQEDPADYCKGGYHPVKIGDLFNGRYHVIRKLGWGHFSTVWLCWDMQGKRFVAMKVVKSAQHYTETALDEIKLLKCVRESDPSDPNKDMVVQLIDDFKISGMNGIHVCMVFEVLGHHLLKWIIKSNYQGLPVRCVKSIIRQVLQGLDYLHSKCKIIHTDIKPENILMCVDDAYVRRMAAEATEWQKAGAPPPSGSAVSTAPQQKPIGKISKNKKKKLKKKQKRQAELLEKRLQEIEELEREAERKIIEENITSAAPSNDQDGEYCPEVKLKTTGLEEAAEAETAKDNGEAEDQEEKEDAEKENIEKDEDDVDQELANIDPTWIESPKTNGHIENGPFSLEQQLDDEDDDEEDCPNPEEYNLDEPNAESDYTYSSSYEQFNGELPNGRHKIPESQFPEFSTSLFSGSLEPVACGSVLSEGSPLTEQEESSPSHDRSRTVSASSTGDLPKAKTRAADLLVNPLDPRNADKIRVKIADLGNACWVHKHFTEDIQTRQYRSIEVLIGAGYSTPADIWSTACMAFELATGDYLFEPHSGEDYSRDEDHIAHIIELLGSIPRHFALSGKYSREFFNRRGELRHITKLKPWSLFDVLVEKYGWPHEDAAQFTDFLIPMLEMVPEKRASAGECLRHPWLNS"}, "[1]": {"biological_target": "T2, ABL1(Q252H)-nonphosphorylated (Homo sapiens, UniProt P00519, Q252H)", "T2 construct": "nonphosphorylated"}, "GRK4": {"biological_target": "GRK4 (Homo sapiens, UniProt P32298)", "sequence (P32298 whole entry)": "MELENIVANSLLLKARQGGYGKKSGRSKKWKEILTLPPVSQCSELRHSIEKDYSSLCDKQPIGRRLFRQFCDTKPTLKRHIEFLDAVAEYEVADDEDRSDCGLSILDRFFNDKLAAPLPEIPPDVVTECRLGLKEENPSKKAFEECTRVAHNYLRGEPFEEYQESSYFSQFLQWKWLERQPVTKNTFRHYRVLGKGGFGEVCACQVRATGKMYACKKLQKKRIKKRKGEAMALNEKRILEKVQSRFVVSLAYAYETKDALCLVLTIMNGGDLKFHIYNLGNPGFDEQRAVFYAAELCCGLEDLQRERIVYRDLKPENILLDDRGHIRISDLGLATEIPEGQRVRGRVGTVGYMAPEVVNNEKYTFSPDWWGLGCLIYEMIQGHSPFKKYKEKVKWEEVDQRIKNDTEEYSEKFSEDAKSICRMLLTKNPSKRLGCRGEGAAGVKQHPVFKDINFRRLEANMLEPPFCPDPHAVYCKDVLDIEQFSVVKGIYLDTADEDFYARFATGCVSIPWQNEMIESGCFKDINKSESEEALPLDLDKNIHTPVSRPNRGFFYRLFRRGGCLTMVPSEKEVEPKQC"}, "BMX": {"biological_target": "BMX (Homo sapiens, UniProt P51813)"}, "AURKC": {"biological_target": "AURKC (Homo sapiens, UniProt Q9UQB9)", "sequence (Q9UQB9 whole entry)": "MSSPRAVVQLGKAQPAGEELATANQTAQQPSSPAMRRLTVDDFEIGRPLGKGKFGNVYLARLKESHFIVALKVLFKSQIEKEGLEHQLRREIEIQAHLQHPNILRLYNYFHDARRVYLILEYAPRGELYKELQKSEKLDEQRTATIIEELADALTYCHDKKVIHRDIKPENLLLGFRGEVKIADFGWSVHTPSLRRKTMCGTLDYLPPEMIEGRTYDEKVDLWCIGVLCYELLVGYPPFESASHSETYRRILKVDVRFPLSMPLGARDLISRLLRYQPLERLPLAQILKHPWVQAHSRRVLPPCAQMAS"}, "MARK3": {"biological_target": "MARK3 (Homo sapiens, UniProt P27448)"}, "PFTK1": {"biological_target": "T3, PFTK1 (Homo sapiens, UniProt O94921)", "T3 construct": "gene CDK14"}, "PIK3CA(M1043I)": {"biological_target": "PIK3CA(M1043I) (Homo sapiens, UniProt P42336, M1043I)"}, "MST1": {"biological_target": "T4, MST1 (Homo sapiens, UniProt Q13043)", "T4 construct": "gene STK4"}, "IRAK3": {"biological_target": "IRAK3 (Homo sapiens, UniProt Q9Y616)"}, "ROCK2": {"biological_target": "ROCK2 (Homo sapiens, UniProt O75116)"}, "TTK": {"biological_target": "TTK (Homo sapiens, UniProt P33981)"}, "YANK3": {"biological_target": "T5, YANK3 (Homo sapiens, UniProt Q86UX6)", "T5 construct": "gene STK32C"}, "GRK3": {"biological_target": "GRK3 (Homo sapiens, UniProt P35626)", "sequence (P35626 whole entry)": "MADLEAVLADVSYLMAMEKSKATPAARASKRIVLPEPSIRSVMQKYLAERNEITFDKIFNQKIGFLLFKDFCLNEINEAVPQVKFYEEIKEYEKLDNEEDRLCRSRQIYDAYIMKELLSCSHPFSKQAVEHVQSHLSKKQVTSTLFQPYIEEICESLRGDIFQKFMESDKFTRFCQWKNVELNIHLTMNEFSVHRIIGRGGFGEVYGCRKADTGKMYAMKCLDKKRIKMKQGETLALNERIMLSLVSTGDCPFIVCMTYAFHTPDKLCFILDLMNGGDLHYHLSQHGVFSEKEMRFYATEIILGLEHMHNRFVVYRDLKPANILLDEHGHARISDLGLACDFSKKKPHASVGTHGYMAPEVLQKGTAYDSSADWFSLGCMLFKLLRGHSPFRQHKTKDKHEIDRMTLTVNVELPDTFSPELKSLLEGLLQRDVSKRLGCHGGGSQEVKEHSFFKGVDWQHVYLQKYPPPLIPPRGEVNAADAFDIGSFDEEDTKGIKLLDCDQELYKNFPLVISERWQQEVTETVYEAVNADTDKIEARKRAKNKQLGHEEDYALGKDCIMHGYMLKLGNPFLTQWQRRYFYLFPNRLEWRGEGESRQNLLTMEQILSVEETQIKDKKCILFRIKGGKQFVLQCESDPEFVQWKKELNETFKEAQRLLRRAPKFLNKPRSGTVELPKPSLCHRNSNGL"}, "p38-beta": {"biological_target": "T6, p38-beta (Homo sapiens, UniProt Q15759)", "T6 construct": "gene MAPK11"}, "ALK(C1156Y)": {"biological_target": "ALK(C1156Y) (Homo sapiens, UniProt Q9UM73, C1156Y)"}, "MAP4K2": {"biological_target": "MAP4K2 (Homo sapiens, UniProt Q12851)", "sequence (Q12851 whole entry)": "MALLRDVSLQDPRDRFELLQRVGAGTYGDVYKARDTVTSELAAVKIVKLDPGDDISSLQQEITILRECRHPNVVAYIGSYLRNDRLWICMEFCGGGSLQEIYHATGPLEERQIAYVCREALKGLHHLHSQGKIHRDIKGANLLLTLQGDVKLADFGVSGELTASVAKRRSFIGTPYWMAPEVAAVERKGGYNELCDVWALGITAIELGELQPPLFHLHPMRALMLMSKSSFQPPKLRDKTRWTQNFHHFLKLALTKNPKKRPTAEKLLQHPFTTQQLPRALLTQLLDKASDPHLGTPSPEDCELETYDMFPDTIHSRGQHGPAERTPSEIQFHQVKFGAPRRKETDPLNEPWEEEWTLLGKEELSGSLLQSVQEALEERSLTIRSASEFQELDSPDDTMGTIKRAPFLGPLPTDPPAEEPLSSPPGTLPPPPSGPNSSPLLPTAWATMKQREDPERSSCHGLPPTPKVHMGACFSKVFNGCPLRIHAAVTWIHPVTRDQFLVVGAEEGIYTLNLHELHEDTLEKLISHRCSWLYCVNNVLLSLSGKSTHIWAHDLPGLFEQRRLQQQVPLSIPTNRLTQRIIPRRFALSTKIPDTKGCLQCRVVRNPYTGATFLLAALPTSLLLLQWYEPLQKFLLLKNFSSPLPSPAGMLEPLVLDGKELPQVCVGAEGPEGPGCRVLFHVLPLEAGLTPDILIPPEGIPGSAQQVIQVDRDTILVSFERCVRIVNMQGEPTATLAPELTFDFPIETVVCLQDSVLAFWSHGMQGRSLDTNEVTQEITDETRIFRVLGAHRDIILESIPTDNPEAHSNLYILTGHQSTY"}, "BMPR1A": {"biological_target": "BMPR1A (Homo sapiens, UniProt P36894)", "sequence (P36894 whole entry)": "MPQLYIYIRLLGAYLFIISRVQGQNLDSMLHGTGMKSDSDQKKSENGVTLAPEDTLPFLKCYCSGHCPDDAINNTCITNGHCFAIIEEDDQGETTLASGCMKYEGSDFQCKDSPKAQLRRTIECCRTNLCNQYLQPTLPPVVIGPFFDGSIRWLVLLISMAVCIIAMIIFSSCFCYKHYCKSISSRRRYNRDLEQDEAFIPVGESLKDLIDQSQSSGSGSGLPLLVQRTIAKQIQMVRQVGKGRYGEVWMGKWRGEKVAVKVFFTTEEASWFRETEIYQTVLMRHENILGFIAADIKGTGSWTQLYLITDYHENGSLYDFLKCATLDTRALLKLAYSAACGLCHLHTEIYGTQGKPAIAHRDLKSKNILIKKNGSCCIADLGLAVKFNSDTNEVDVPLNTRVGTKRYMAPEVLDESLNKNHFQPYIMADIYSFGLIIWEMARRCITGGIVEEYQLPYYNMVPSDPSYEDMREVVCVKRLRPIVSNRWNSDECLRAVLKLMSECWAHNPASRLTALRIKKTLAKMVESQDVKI"}, "DCAMKL3": {"biological_target": "T7, DCAMKL3 (Homo sapiens, UniProt Q9C098)", "T7 construct": "gene DCLK3"}}, "data": [{"compound": "Cc1ccc(NC(=O)c2cccc(C(F)(F)F)c2)cc1Nc1cc(-c2cccnc2)nc2[nH]ccc12", "note": "[HZX-02-059]", "values": [{"measurement": "remaining binding at 1 µM", "setting": "SRC", "result": 78, "unit": "%"}, {"measurement": "remaining binding at 1 µM", "setting": "CDK9", "result": 100, "unit": "%"}, {"measurement": "remaining binding at 1 µM", "setting": "CAMK4", "result": 83, "unit": "%"}, {"measurement": "remaining binding at 1 µM", "setting": "TAOK1", "result": 100, "unit": "%"}, {"measurement": "remaining binding at 1 µM", "setting": "FAK", "result": 98, "unit": "%"}, {"measurement": "remaining binding at 1 µM", "setting": "SRPK2", "result": 83, "unit": "%"}, {"measurement": "remaining binding at 1 µM", "setting": "[1]", "result": 30, "unit": "%"}, {"measurement": "remaining binding at 1 µM", "setting": "GRK4", "result": 83, "unit": "%"}, {"measurement": "remaining binding at 1 µM", "setting": "BMX", "result": 80, "unit": "%"}, {"measurement": "remaining binding at 1 µM", "setting": "AURKC", "result": 75, "unit": "%"}, {"measurement": "remaining binding at 1 µM", "setting": "MARK3", "result": 92, "unit": "%"}, {"measurement": "remaining binding at 1 µM", "setting": "PFTK1", "result": 98, "unit": "%"}, {"measurement": "remaining binding at 1 µM", "setting": "PIK3CA(M1043I)", "result": 92, "unit": "%"}, {"measurement": "remaining binding at 1 µM", "setting": "MST1", "result": 74, "unit": "%"}, {"measurement": "remaining binding at 1 µM", "setting": "IRAK3", "result": 92, "unit": "%"}, {"measurement": "remaining binding at 1 µM", "setting": "ROCK2", "result": 100, "unit": "%"}, {"measurement": "remaining binding at 1 µM", "setting": "TTK", "result": 99, "unit": "%"}, {"measurement": "remaining binding at 1 µM", "setting": "YANK3", "result": 81, "unit": "%"}, {"measurement": "remaining binding at 1 µM", "setting": "GRK3", "result": 98, "unit": "%"}, {"measurement": "remaining binding at 1 µM", "setting": "p38-beta", "result": 64, "unit": "%"}, {"measurement": "remaining binding at 1 µM", "setting": "ALK(C1156Y)", "result": 99, "unit": "%"}, {"measurement": "remaining binding at 1 µM", "setting": "MAP4K2", "result": 96, "unit": "%"}, {"measurement": "remaining binding at 1 µM", "setting": "BMPR1A", "result": 69, "unit": "%"}, {"measurement": "remaining binding at 1 µM", "setting": "DCAMKL3", "result": 81, "unit": "%"}]}]}
